One assay relates to adults with AML. Briefly: Clinical outcome of VTX treated patients, clusters by 44-protein classifier (Example 1). The format is in vivo, human. The protocol: Reverse Phase Protein Array (RPPA) as described by Tibes et al. 2006 and Kornblau et al. 2011 was performed on leukemia blast enriched fractions prepared from diagnostic samples of 818 adults with AML, of which 143 were treated with venetoclax (VTX) including 33 in combination with high dose Ara-C, 5 with standard dose Ara-C, 50 with hypomethylating agents (HMA), and 13 with HMA and targeted therapy (either CPX-351 liposome, a dual-drug liposomal encapsulation of cytarabine and daunorubicin, or anthracycline). Protein expression levels were evaluated using 390 validated antibodies against total and post translationally modified (phosphorylated, methylated, cleaved) as described by Hoff et al. 2019. proteins and were analyzed in the context of clinical data compiled by retrospective chart review. Pearson correlation was used to identify significant protein-protein correlations. Survival curves were generated by the Kaplan-Meier method and survival data was analyzed by multivariate cox regression model. Protein expression signatures were identified by hierarchical clustering and predictive models of protein classifiers were determined by classification and regression trees (CART) analysis.
We queried the 390 proteins (Table 1) assayed in the 143 VTX treated patients to identify proteins individually prognostic for overall survival (OS) or remission duration (REMDUR) and identified 27 proteins correlated with OS (p<0.01) and 44 proteins correlated with REMDUR (p<0.01). Neither MCL1, BCLXL nor BCL2 expression at diagnosis were prognostic of overall survival (OS) or remission duration (REMDUR).

The subject of a further assay is MV4-11 VTX-sen cell line. Kind of assay: Immunoblot protein expression after VTX treatment, MV4-11 cells. The format is cell-based. The conditions noted are these: 24 hours post treatment with VTX, identical experimental conditions. The protocol:
Protein expression validation in AML cell lines. MOLM-13 parental and VTX-resistant cells were the kind gift of Dr. Marina Konopleva (MD Anderson Cancer Center; Houston, TX, USA). OCI-AML-3, KG-1, and MV4-11 cells were obtained from the Leukemia Sample Bank (LSB) at MD Anderson. For protein expression comparison in cell lines, immunoblot analysis was performed. Cells were boiled and sonicated in lysis buffer and protein (1.5×10^5 cell equivalents) was subjected to electrophoresis using SDS/PAGE. Immunoblot analysis was performed with antibodies against CBL (BD Transduction Lab), PRKCB.pS660 (Cell Signaling, Beverly, MA), SYK (Santa Cruz, Dallas, TX), PKM2 (Cell Signaling), STAT3.pS727 (Cell Signaling), Beta-Actin (Sigma Aldrich, St. Louis, MO), GADPH (Ambion, Austin, TX) and Alpha-Tubulin (Sigma Aldrich). Signals were detected by using the ProteinSimple FluorChem imaging system and quantified by AlphaView software. Beta-Actin, GAPDH, and Alpha-Tubulin were used as loading controls. Densitometry was calculated as protein expression/expression of housekeeping gene, relative to the control.
The above findings were validated by looking for similar responses in cell lines in vitro in response to VTX exposure. […]

The subject of assay [1] is adult patients with newly diagnosed AML. Kind of assay: Clinical outcome of VTX-containing induction chemotherapy, clusters by 36-protein classifier (Example 2). The format is in vivo, human. The text has this: Sample Collection and Processing. Peripheral blood (PB) and bone marrow (BM) samples were collected from 818 adult patients with newly diagnosed AML, of which 143 received VTX-containing induction chemotherapy, evaluated at the University of Texas MD Anderson Cancer Center (MDACC) between January 2012 and July 2020. Informed consent was obtained in accordance with the Declaration of Helsinki. Samples were processed and analyzed under an Investigational Review Board (IRB) approved laboratory protocol (Lab 06-0565).
Following data normalization, a cohort of 143 patients that received VTX-containing induction chemotherapy was identified for separate analysis for the purposes of this manuscript. Survival curves were generated by Kaplan-Meier method and survival data was analyzed by multivariate cox regression model. [Refs. 12, 13] Protein expression signatures were identified by hierarchical Progeny clustering. [Ref. 14] Correlations between clustered protein signatures and clinical features were assessed using Fisher's exact test for categorical variables and the Kruskal-Wallis test for continuous variables. Multivariate analysis for survival outcomes OS and RD was performed by Cox regression model. Median protein expression within clusters was compared to median expression in the normal controls to identify significant expression trends with the Wilcoxon test. Protein networks were built using Cytoscape (version 3.9.1) combining literature-based protein interactions queried from the STRING database and proteomic-based interactions inferred from the RPPA data derived from Pearson correlation. [Ref. 11] Predictive classifier models were assembled in Python using the random forest machine learning technique. All bioinformatics and analysis were performed in Rstudio (version 1.3.1093) with R (version 4.1.2).
A cohort of 143 patients that received VTX as a component of induction chemotherapy was identified, of which 27 received VTX combined with high-dose cytarabine (Ara-C), 29 combined with low- or standard-dose Ara-C, […], 6 with high-dose Ara-C and a hypomethylating agent, and 12 combined with targeted therapy (5 FLT3 inhibitors, 5 IDH inhibitors, 2 TP53 inhibitors). In the VTX cohort, 5 patients were not treated at MDACC leaving 138 patients evaluable for outcome and further analysis. Median age at diagnosis was 68 years (range 18-90 years) with median follow-up 58 weeks (range 2-396 weeks). […] Patient demographic, diagnostic labs, (data not shown) treatment, and outcome data was compiled to be analyzed against protein expression data.
Next, recurring patterns of expression were identified across the 36 proteins correlated to OS (FIGS. 3A and 3B) by applying the Progeny clustering algorithm utilizing k-means, and unbiased hierarchical clustering [Ref. 14] identifying three distinct protein expression patterns Cluster 1 (C1; n=41), Cluster 2 (C2; n=63), and Cluster 3 (C3; n=39). Protein expression was somewhat heterogeneous between clusters for several proteins, namely AR, STAT3.pY705, and RAF1.pS338. Expression of CDKN1B and CDKN1B.pS10 were nearly universally high in AML samples relative to the CD34+ controls, albeit phosphorylated CDKN1B was relatively higher in C1 members. While universally low across AMVL samples, ASH2L and MSH6 were relatively lower in the C1 signature as were PRMT1, MAPK14.pT180, HSF1.pS326, EIF4EBP1.pS65, EIF2AK2, and WDR5. The C3 signature was marked by relatively high expression of PrMT1, KMT2D, STAT3.pS727, EP300, and TSC2 and relatively low expression in AKR1C3, YWHAE, TNK1, COPS5, ATF3, SGK1, VTCN1, TNFRSF4, and PEA15.

In the case of `CC1(C)CCC(CN2CCN(c3ccc(C(=O)NS(=O)(=O)c4ccc(NCC5CCOCC5)c([N+](=O)[O-])c4)c(Oc4cnc5[nH]ccc5c4)c3)CC2)=C(c2ccc(Cl)cc2)C1` [VTX, venetoclax], the Remission rate in the assay with adults with AML (cluster 1) came out at 61%; with adults with AML (cluster 2), 77%; in assay [1] (Cluster 1 (C1)) it was 82%; in assay [1] (Cluster 2 (C2)), 70%; in assay [1] (Cluster 3 (C3)), 50%. In addition, the figures for the “relapse risk (RR) at 1-yr” value in the assay on adults with AML (cluster 1) and in the assay with adults with AML (cluster 2) were 45% and 18%, respectively. The “estimated 3-yr overall survival” value is 27% in the assay on adults with AML (cluster 1 (n=102)) and 66% with adults with AML (cluster 2 (n=41)). Also, in the assay on MV4-11 VTX-sen cell line, the “reduction in the expression of PKM2” value is > 50%. For the same compound, the “median OS” value in assay [1] (C1) is listed as 182.7 weeks; in assay [1] (C2), 55.1 weeks; in assay [1] (C3) it was 35.7 weeks. In addition, the relapse rate in assay [1] (C1, patients that achieved remission (n=32)) is 21.9%; in assay [1] (C2, patients that achieved remission (n=40)), 42.5%; in assay [1] (C3, patients that achieved remission (n=18)), 66.7%. Also, the median remission duration is given as 129 weeks in assay [1] (C2) and 39 weeks in assay [1] (C3). Besides, the “Remission (CR/CRi) achieved” value in assay [1] (all evaluable patients (138), n=90) amounted to 65%. Further, the “relapsed, of patients in remission” value in assay [1] (of 90 patients in remission, n=36) is recorded as 40%.

The values above are taken from patent US20240426824A1, “METHODS RELATING TO TREATMENT OF ACUTE MYELOID LEUKEMIA” (BOARD OF REGENTS, THE UNIVERSITY OF TEXAS SYSTEM, priority 2021, published 2024).
